Test results published in patent US4783452A, “Platinum coordination compounds” (Johnson Matthey Public Limited Company, priority 1985, dated 1988).

Tested on: ADJ/PC6 tumour
Assay: anti-tumour activity against ADJ/PC6 tumour implanted into female Balb C- mice
Type: in vivo
Set-up: LD50: unit not given here
Conditions: for TI / ED90: ADJ/PC6 tumour; for ED90: in mg/kg (unit assumed)
Method: Compounds were administered both parenterally (IP) and orally (PO).

Molecule | LD50 (IP (parenteral)) | TI (IP (parenteral)) | ED90 (IP (parenteral)) | LD50 (PO (oral)) | TI (PO (oral)) | ED90 (PO (oral))
cis-dichloro[2,3-dihydroxy-1,2-diamino butane)-platinum (II) [reference compound] | > 400 | > 1 | 380 | > 800 | – | –
CC1(C)OC(CN)C(CN)O1.[Cl][Pt][Cl] [cis-dichloro[(4S,5S)-4,5-bis-(aminomethyl)-2,2-dimethyl-1,3-] [cis-dichloro[(4S,5S)-4,5-bis-(aminomethyl)-2,2-dimethyl-1,3-dioxolane]platinum (II)] | 35 | 23.9 | 1.46 | 1130 | 43.5 | 26
CC1(C)OC(CN)C(CN)O1.[Br][Pt][Br] (racemic) [cis-dibromo[4,5-bis(aminomethyl)-2,2-dimethyl-1,3-dioxolane]platinum (II)] | 21 | 5.2 | 4 | – | – | –
[Cl][Pt]1([Cl])[NH]CC2OC(c3ccccc3)OC2C[NH]1 [cis-dichloro[(4S,5S)-4,5-bis-(aminomethyl)-2-phenyl-1,3-dioxolane]platinum (II)] | > 800 | > 26 | 30 | > 1600 | > 1 | ~ 1600
CC1(C)OC(CN)C(CN)O1.[Cl][Pt][Cl] [cis-dichloro[(4R,5R)-4,5-bis-(aminomethyl)-2,2-dimethyl-1,3-] [cis-dichloro[(4R,5R)-4,5-bis-(aminomethyl)-2,2-dimethyl-1,3-dioxolane]platinum (II)] | 35 | 22.6 | 1.6 | 1100 | 122 | 9
